Laboratory results as given in ChEMBL document CHEMBL3046452, “Synthesis and pharmacological evaluation of some novel 2-pyrazolines bearing benzenesulfonamide as anti-inflammatory and blood glucose lowering agents” (Med Chem Res, 2013).

Tests used:
Rattus norvegicus [1] = test: Anti-inflammatory activity in Rattus norvegicus Wistar albino (rat) assessed as inhibition of carrageenan-induced paw edema at 0.05 mmol/kg administered 30 min prior to carrageenan-challenge measured after 5 hr relative to control; type: functional
Rattus norvegicus [2] = test: Antidiabetic activity in fasted glucose fed hyperglycemic normal Rattus norvegicus Wistar albino (rat) assessed as blood glucose level at 0.05 mmol/kg administered 30 min prior to glucose-challenge measured after 60 min (reference value: 126.5 +/- 3.8 mg/dl); type: functional
Rattus norvegicus [3] = test: Anti-inflammatory activity in Rattus norvegicus Wistar albino (rat) assessed as inhibition of carrageenan-induced paw edema at 0.05 mmol/kg administered 30 min prior to carrageenan-challenge measured after 3 hr relative to control; type: functional
Rattus norvegicus [4] = test: Ulcerogenic activity in fasted Rattus norvegicus Wistar albino (rat) at 0.15 mmol/kg , po measured after 6 hr; type: toxicity, organism-based; details: in vivo

Row | SMILES | inhibition in vivo at 50 µmol/kg (Rattus norvegicus [1]) | Activity (Rattus norvegicus [2]) | inhibition in vivo at 50 µmol/kg (Rattus norvegicus [3]) | Activity (Rattus norvegicus [4])
1 | NS(=O)(=O)c1ccc(N2N=C(c3cccc(O)c3)C[C@H]2c2ccco2)cc1 | 29.6% | 133 mg/dL | 35.8% | 
2 | NS(=O)(=O)c1ccc(N2N=C(c3cccc(O)c3)C[C@H]2c2ccc(Cl)cc2)cc1 | 51.8% | 134 mg/dL | 19.2% | 
3 | NS(=O)(=O)c1ccc(N2N=C(c3cccc(O)c3)C[C@H]2c2ccccc2Cl)cc1 | 70.3% | 121 mg/dL | 32.6% | 
4 | COc1ccc([C@@H]2CC(c3cccc(O)c3)=NN2c2ccc(S(N)(=O)=O)cc2)cc1OC | 66.7% | 111 mg/dL | 55.9% | 
5 | NS(=O)(=O)c1ccc(N2N=C(c3cccc(O)c3)C[C@H]2c2ccccc2)cc1 | 77.7% | 126.3 mg/dL | 35.8% | Non-toxic
6 | NS(=O)(=O)c1ccc(N2N=C(c3cccc(O)c3)C[C@H]2c2ccccc2O)cc1 | 55.5% | 133 mg/dL | 35.4% | 
7 | Cc1ccc([C@@H]2CC(c3cccc(O)c3)=NN2c2ccc(S(N)(=O)=O)cc2)cc1 | 66% | 138.6 mg/dL | 64.7% | 
8 | NS(=O)(=O)c1ccc(N2N=C(c3cccc(O)c3)C[C@H]2/C=C/c2ccccc2)cc1 | 59.2% | 131 mg/dL | 39.9% | 
9 | COc1cc([C@@H]2CC(c3cccc(O)c3)=NN2c2ccc(S(N)(=O)=O)cc2)cc(OC)c1OC | 74.4% | 94.6 mg/dL | 51.9% | 
10 | NS(=O)(=O)c1ccc(N2N=C(c3cccc(O)c3)C[C@H]2c2c3ccccc3cc3ccccc23)cc1 | 77.7% | 136.6 mg/dL | 59.8% | Non-toxic
11 | COc1ccc([C@@H]2CC(c3cccc(O)c3)=NN2c2ccc(S(N)(=O)=O)cc2)cc1 | 62.9% | 116.5 mg/dL | 64.7% | 
12 | NS(=O)(=O)c1ccc(N2N=C(c3cccc(O)c3)C[C@H]2c2ccc(O)cc2)cc1 | 77.7% | 121 mg/dL | 64.7% | Non-toxic
13 | Cc1ccc(S(=O)(=O)NC(=O)NN2CC3CCCC3C2)cc1 (configuration not stated) [GLICLAZIDE] |  | 85.83 mg/dL |  | 
14 | Cc1ccc(-c2cc(C(F)(F)F)nn2-c2ccc(S(N)(=O)=O)cc2)cc1 [CELECOXIB] | 82.2% |  | 75.9% | 
